Data published in patent US20040248864A1, “Use of anthroquinones in the treatment of kidney disease” (priority 2001, published 2004).
Like-named read-outs stand apart in the source and are kept apart here.

Assays:
[1] = PK profile: plasma concentration of rhein after oral dosing with diacerein; assay type: in vivo; details: rat
Protocol: FIG. 1 is a PK profile, i.e. a graph of plasma concentration of rhein (mg/ml) against time (min) post-dosing with 100, 200 and 300 mg/kg diacerein.
Consequently, the dosing for the nephrotoxic nephritis experiment was based around this dose range (see below).

nephrotoxic nephritis = assay: rat model of nephritis (nephrotoxic nephritis): proteinuria and renal histology (crescents); assay type: in vivo; details: for proteinuria compared to the control: diacerein 50, 100 and oral once a day, prednisolone 2 mg/kg
Protocol: Experiments were conducted, using a rat model of nephritis (nephrotoxic nephritis) (Karkar et al, Kidney International, 1997). This is an aggressive immune driven model which parallels clinical conditions such as lupus nephritis, glomerulonephritis, IgA nephropathy and other immune-mediated nephritic diseases.
[…] Development of nephrotoxic nephritis was measured by the degree of proteinuria (in the control group) at days 6 and 10, post-disease initiation and by renal histology at day 10, quantified by the number of damaged nephrons (crescents) per histology section. These end-points were used to determine the success of the diacerein treatment. Alongside diacerein treatment, a negative control (drug vehicle only) and positive control (2 mg/kg prednisolone) were tested.

[2] = humans; cited from earlier work
[3] = tested on: inducible nitric oxide synthase; details: osteochondrocytes, IL-1b stimulated; Pelletier 1998; cited from earlier work
IL-1 = details: Yaron et al 1999; Moldovan 2000; cited from earlier work
[4] = tested on: MMPs 1, 3, 9 & 13 and pro-MMPs; details: Tamura et al 2001; cited from earlier work
TIMP-1 = details: Tamura et al 2001; cited from earlier work
[5] = day 6 post-disease initiation, significant at highest dose (p<0.01)
[6] = day 10 post-disease initiation, significant at top dose (p<0.01)

Row | Structure (SMILES) | oral dose required to obtain therapeutic plasma concentrations of drug [1] [mg/kg] | proteinuria compared to the control (nephrotoxic nephritis; [5]) | nephron damage (crescents per histology section) (nephrotoxic nephritis; day 10 histology, 50 mg/kg diacerein) | nephron damage (crescents per histology section) (nephrotoxic nephritis; day 10 histology, 100 mg/kg diacerein, significant (p<0.05)) | nephron damage (crescents per histology section) (nephrotoxic nephritis; day 10 histology, 200 mg/kg diacerein) | proteinuria compared to the control (nephrotoxic nephritis; [6]) | effect on both proteinuria and renal damage associated with nephrotoxic nephritis (nephrotoxic nephritis; overall summary of the study) | oral dose required to obtain therapeutic plasma concentrations of drug [2] [mg/kg] | production of inducible nitric oxide synthase and production of nitric oxide [3] | production of the pro-inflammatory cytokine IL-1 (IL-1) | production of key matrix metalloproteinases MMPs 1, 3, 9 & 13 and pro-MMPs [4] | production of tissue inhibitor of matrix MMP-1, TIMP-1 (TIMP-1) | effect on renal damage (histology) (nephrotoxic nephritis; day 10 histology, 2 mg/kg prednisolone)
1 | CC(=O)Oc1cccc2c1C(=O)c1c(OC(C)=O)cc(C(=O)O)cc1C2=O [diacerein] | 100 to 200 | decreased compared to the control | decrease in nephron damage | decrease in nephron damage | slight increase again | dose-dependant decrease in proteinuria | significant effect | 0.8 | reduce the production | reduce the production |  |  | 
2 | O=C(O)c1cc(O)c2c(c1)C(=O)c1cccc(O)c1C2=O [rhein] |  |  |  |  |  |  |  |  | reduce the production | reduce the production | down-regulates the production | increases the production | 
3 | C[C@]12C=CC(=O)C=C1CC[C@@H]1[C@@H]2[C@@H](O)C[C@@]2(C)[C@H]1CC[C@]2(O)C(=O)CO [prednisolone] |  | markedly reduced proteinuria |  |  |  | unexpected rebound above the control proteinuria levels |  |  |  |  |  |  | negligible
